Source: patent US20240293551A1, “USE OF ST-TYPE LIPID COMPOUNDS IN PREPARATION OF NUCLEIC ACID DELIVERY REAGENT AND RELATED PRODUCT” (INSTITUTE OF BASIC MEDICAL SCIENCES CHINESE ACADEMY OF …, priority 2021, published 2024)

Tested on: PGY-sRNA-26
Test: In vivo delivery study of lipid-nucleic acid mixture (oral gavage, RT-qPCR of PGY-sRNA-26 in tissues)
Parameters: species or system mouse
Conditions: C57BL/6 mice, gavage, 100 μg lipid: 10 nmol PGY-sRNA-26, 12 hours; for delivery efficacy over each tissue and blood tested (broad-spectrum delivery): all tissues and blood tested; for oral delivery of single-stranded sRNA nucleic acids into mouse intestinal tissue: intestine
Method: 10 nmol of small RNA (as shown in Table 2) was dissolved in 400 μl of DEPC-treated water in a glass tube, 10 μl of the corresponding lipid stock solution was added such that the lipid mass in the system was 100 μg. The mixture was mixed thoroughly, heated in a 90° C. water bath for 15 minutes, and then cooled naturally to obtain the lipid nucleic acid mixture of lipid and small RNA.
C57BL/6 male mice, approximately 6 weeks old, weighing 20-24 g, were obtained from Beijing Vital River Laboratory Animal Technology Co., Ltd. The mice were housed in the SPF-grade animal facility at the Animal Center of the Institute of Basic Medical Sciences, Chinese Academy of Medical Sciences. The mice were fasted for 12 hours before gavage administration.
The resultant lipid nucleic acid mixture was orally administered to each mouse at a dose of 100 μg lipid: 10 nmol single-stranded 3′-methylated small RNA PGY-sRNA-26.
• 1) Blank group (n=4): mice were administered with 500 μl saline by gavage, this group served as a blank control; • 2) Free uptake group (n=4): mice were directly administered with small RNA PGY-sRNA-26 solution (10 nmol/mouse, 500 μl) by gavage, this group served as a negative control; • 3) Lipid-treated group (n=4): mice were administered with 500 μl lipid nucleic acid mixture prepared in step 2 by gavage.
After 12 hours of gavage administration, 500 μl blood from the eyeball of each mouse was sampled, added to 1.5 ml Trizol Reagent LS (purchased from Invitrogen), thoroughly mixed for lysis. 3 ml of Trizol Reagent LSwas added to tissue samples and homogenized for complete lysis, wherein the sampled tissues include heart, liver, spleen, lung, kidney, stomach, intestine, brain, blood, femur. RNA was extracted from 1 ml of the blood or the tissue lysate following the steps below: • Centrifuge at 4° C., 12,000 rpm for 5 min, discard the precipitate, transfer Trizol to a new centrifuge tube; • Add chloroform at 200 μL chloroform/mL Trizol, shake well, stand at room temperature for 5 min; • Centrifuge at 4° C., 12,000 rpm for 15 min; • Take the upper aqueous phase to another centrifuge tube, add isopropanol at 0.4 mL isopropanol/mL Trizol, mix well, and stand at low temperature for 10-20 min; • Centrifuge at 4° C., 12,000 rpm for 15 min, discard the supernatant, RNA precipitated at the bottom of the tube; • Add 1 mL of 75% ethanol, gently shake the centrifuge tube, suspend the precipitate; • Centrifuge at 4° C., 12,000 rpm for 15 min, discard the supernatant, add 1 mL of 75% ethanol, gently shake the centrifuge tube, suspend the precipitate; • Centrifuge at 4° C., 12,000 rpm for 15 min, discard the supernatant, air-dry at room temperature, dissolve RNA samples in 50 μL RNase-free H2O, measure OD value to quantify RNA concentration. 3.3 Reverse Transcription of sRNA to cDNA:
The reverse transcription system is as follows: Template RNA (200 ng/μL) 10 μL, 10×RT Buffer 2.0 μL, 25×dNTP Mix (100 mM) 0.8 μL, U6 RT stem-loop primer (10 μM) 2.0 μL, PGY-sRNA-26 RT stem-loop primer (10 μM) 2.0 μL, MultiScribe™ Reverse Transcriptase (50 U/μL) 1.0 μL, RNAse Inhibitor (40 U/μL) 1.0 μL, nuclease-free H2O 1.2 μL. After transient centrifugation, the reverse transcription system was placed in a PCR machine with the following reaction conditions: (1) 25° C., 10 min; (2) 37° C., 120 min; (3) 85° C., 5 min; (4) 4° C., stop reaction. After the reaction, add 20 μL RNAse-free ddH2O, adjust the final volume to 40 μL. The stem-loop primers used in this reverse transcription process were synthesized by Beijing Tianyi Huiyuan Biotechnology Co., Ltd. (U6 was used as a standard reference gene to calculate its relative expression, because U6 RT primer was used as a reference gene in relative quantification of RT-qPCR reactions for small RNA): […]

Row | Compound | delivery efficacy over each tissue and blood tested (broad-spectrum delivery) | oral delivery of single-stranded sRNA nucleic acids into mouse blood | oral delivery of single-stranded sRNA nucleic acids into mouse brain tissue | oral delivery of single-stranded sRNA nucleic acids into mouse femur | oral delivery of single-stranded sRNA nucleic acids into mouse heart tissue | oral delivery of single-stranded sRNA nucleic acids into mouse intestinal tissue | oral delivery of single-stranded sRNA nucleic acids into mouse kidney tissue | oral delivery of single-stranded sRNA nucleic acids into mouse liver tissue | oral delivery of single-stranded sRNA nucleic acids into mouse lung tissue | oral delivery of single-stranded sRNA nucleic acids into mouse spleen tissue | oral delivery of single-stranded sRNA nucleic acids into mouse stomach tissue
1 | C[C@]12CC[C@@H](O)C[C@@H]1CC[C@@H]1[C@@H]2CC[C@]2(C)C(=O)CC[C@@H]12 [Lipid 563] | exhibited the best delivery efficacy | can effectively orally deliver | can effectively orally deliver | can effectively orally deliver | can effectively orally deliver | can effectively orally deliver | can effectively orally deliver | can effectively orally deliver | can effectively orally deliver | can effectively orally deliver | can effectively orally deliver
2 | C[C@]12CC[C@H](O)C[C@@H]1CC[C@@H]1[C@@H]2CC[C@]2(C)[C@@H](O)CC[C@@H]12 [Lipid 548, 5α-androstanediol (3S,5S,8R,9S,10S,13S,14S,17S)-10,13-dimethyl-2,3,4,5,6,7,8,9,11,12,14,15,16,17-tetradecahydro-1H-cyclopenta[a]phenanthrene-3,17-diol] | exhibited the best delivery efficacy | can effectively orally deliver | can effectively orally deliver | can effectively orally deliver | can effectively orally deliver | can effectively orally deliver | can effectively orally deliver | can effectively orally deliver | can effectively orally deliver | can effectively orally deliver | can effectively orally deliver
3 | C[C@H](CCC(=O)NCC(=O)O)[C@H]1CC[C@H]2[C@@H]3[C@H](O)C[C@@H]4C[C@H](O)CC[C@]4(C)[C@H]3C[C@H](O)[C@]12C [Lipid 553] | exhibited the best delivery efficacy | can effectively orally deliver | can effectively orally deliver | can effectively orally deliver | can effectively orally deliver | can effectively orally deliver | can effectively orally deliver | can effectively orally deliver | can effectively orally deliver | can effectively orally deliver | can effectively orally deliver
4 | C[C@@H]1CC[C@@]2(OC1)O[C@H]1C[C@H]3[C@@H]4CC=C5C[C@@H](O)CC[C@]5(C)[C@H]4CC[C@]3(C)[C@H]1[C@@H]2C [Lipid 589] | exhibited the best delivery efficacy | can effectively orally deliver | can effectively orally deliver | can effectively orally deliver | can effectively orally deliver | can effectively orally deliver | can effectively orally deliver | can effectively orally deliver | can effectively orally deliver | can effectively orally deliver | can effectively orally deliver
5 | C[C@]12CCC(=O)C=C1CC[C@@H]1[C@@H]2[C@@H](O)C[C@@]2(C)[C@H]1CC[C@]2(O)C(=O)CO [Lipid 566] |  | can effectively orally deliver |  | can effectively orally deliver | can effectively orally deliver | can effectively orally deliver | can effectively orally deliver | can effectively orally deliver |  |  | can effectively orally deliver
6 | CC(=O)[C@H]1CC[C@H]2[C@@H]3CCC4=CC(=O)CC[C@]4(C)[C@H]3CC[C@]12C [Lipid 575] | exhibited the best delivery efficacy | can effectively orally deliver | can effectively orally deliver | can effectively orally deliver | can effectively orally deliver | can effectively orally deliver | can effectively orally deliver | can effectively orally deliver | can effectively orally deliver | can effectively orally deliver | can effectively orally deliver
